Assay results from patent US4690926A, “Boxazomycin A and B, new antibiotics containing benzoxazole nucleus” (Bristol-Myers Company, priority 1986, dated 1987).
In brackets after ≈: the same amount, converted by molar mass. Where a name gives a salt, the structure may show the parent alone.

Key:
[1] = tested on: B. fragilis A22534; format: cell-based; conditions: Bacteroides fragilis, GA agar (Nissui), lactamase producer
[2] = tested on: Neisseria gonorrhoeae A15112
[3] = tested on: Bacteroides fragilis A22693
[4] = tested on: B. subtilis PCI 219; experiment: Effect of pH on antimicrobial activity (MIC, Table 8); format: cell-based; conditions: Bacillus subtilis
[5] = tested on: S. pneumoniae IID; conditions: Streptococcus pneumoniae
[6] = tested on: E. coli NIHJ; experiment: Effect of pH on antimicrobial activity (MIC, Table 8); format: cell-based; conditions: Escherichia coli
[7] = tested on: K. pneumoniae D11; experiment: as above; format: cell-based; conditions: Klebsiella pneumoniae
[8] = tested on: S. aureus A20239; format: cell-based; conditions: Staphylococcus aureus, Nutrient agar (Eiken), kanamycin-resistant
[9] = tested on: Klebsiella pneumoniae D-11; conditions: D11
[10] = tested on: Clostridium difficile A21675; format: cell-based; conditions: Clostridioides difficile, GA agar (Nissui), clindamycin-resistant
[11] = tested on: M. smegmatis 607 D46; format: cell-based, Mycobacterium smegmatis; conditions: Mycolicibacterium smegmatis, Nutrient agar (Eiken), kanamycin-resistant
[12] = Acidity; format: physicochemical
[13] = Toxicity, i.m.; conditions: up to a dose of 400 mg/kg (i.m.)
[14] = tested on: Clostridium perfringens A9635; experiment: animal or person; format: in vivo, Clostridium perfringens; mice
[15] = tested on: S. aureus BX-1633; format: cell-based; conditions: Staphylococcus aureus, BX1633; Nutrient agar (Eiken); lactamase producer
[16] = tested on: S. aureus A22421; format: cell-based; conditions: Staphylococcus aureus, Nutrient agar (Eiken), methicillin-resistant
[17] = tested on: S. necrophorus A15202; experiment: Effect of pH on antimicrobial activity (MIC, Table 8); format: cell-based; conditions: Fusobacterium necrophorum
[18] = tested on: Staphylococcus aureus Smith; experiment: In vivo efficacy in infected mice; design: species or system Staphylococcus aureus; mice; conditions: for ED50: Staphylococcus aureus, im, 100×LD50 challenge in 5% hog gastric mucin, i.m. just before challenge, read-out: PD50
[19] = tested on: Propionibacterium acnes A21933; conditions: Cutibacterium acnes
[20] = tested on: M. phlei D88; conditions: Mycolicibacterium phlei
[21] = tested on: Streptococcus pyogenes S-23; conditions: S23
[22] = format: physicochemical
[23] = tested on: Haemophilus influenzae A9729
[24] = tested on: C. perfringens A9635; experiment: microbe, parasite or virus in culture; format: cell-based; conditions: Clostridium perfringens
[25] = tested on: Peptostreptococcus anaerobius A21905
[26] = tested on: C. perfringens A9635; experiment: microbe, parasite or virus in culture; format: cell-based; conditions: Clostridium perfringens; remark: listed apart in the source
[27] = tested on: Mycobacterium smegmatis 607; conditions: Mycolicibacterium smegmatis
[28] = tested on: Pseudomonas aeruginosa D-113; conditions: D113
[29] = tested on: P. acnes A21933; experiment: Effect of pH on antimicrobial activity (MIC, Table 8); format: cell-based, Propionibacterium acnes; conditions: Cutibacterium acnes
[30] = tested on: B. fragilis A20926; experiment: as above; format: cell-based; conditions: Bacteroides fragilis
[31] = tested on: Bacillus subtilis PCI 219; conditions: PCI219

In the case of `Cc1cc(O)c(C(N)=O)c2nc(-c3nc(CO)ncc3O)oc12` [Boxazomycin A], the MIC [1] is reported as 3.1 µg/mL (≈ 9.8 µM), the MIC [2] is reported as > 100 µg/mL and the MIC [3] is reported as 6.3 µg/mL (≈ 19.9 µM). It also gave an MIC ([4]; PCI219, pH 6) of 0.8 µg/mL (≈ 2.53 µM), an MIC ([4]; PCI219, pH 7) of 6.3 µg/mL (≈ 19.9 µM) and an MIC [5] of 3.1 µg/mL (≈ 9.8 µM). For the same molecule, the MIC ([6]; pH 6) was > 100 µg/mL, the MIC ([6]; pH 7) was > 100 µg/mL and the MIC ([7]; D11, pH 6) was > 100 µg/mL. For the same molecule, the MIC ([7]; D11, pH 7) was > 100 µg/mL, the MIC [8] was 0.4 µg/mL (≈ 1.26 µM) and the MIC [9] was > 100 µg/mL. The MIC [10] was 3.1 µg/mL (≈ 9.8 µM), the MIC [11] was 1.6 µg/mL (≈ 5.06 µM) and the acidity [12] was “weakly acidic”. The toxic symptoms [13] was “did not show any toxic symptoms up to a dose of 400 mg/kg (i.m.)”, the ED50 ([14]; Clostridium perfringens, A9635, in Mus musculus, im, read-out: PD50) was 220 mg/kg and the “in vivo efficacy relative to in vitro activity” value ([14]; mice, i.m.) was “lower than that expected from its in vitro activity”. For the same molecule, the protective effect ([14]; mice, i.m.) was “protective effect in mice against both infections”, the MIC [15] was 0.8 µg/mL (≈ 2.53 µM) and the MIC [16] was 0.8 µg/mL (≈ 2.53 µM). For the same molecule, the MIC ([17]; A15202, pH 6) was 0.4 µg/mL (≈ 1.26 µM), the MIC ([17]; A15202, pH 7) was 3.1 µg/mL (≈ 9.8 µM) and the ED50 [18] was 400 mg/kg. For the same molecule, the “in vivo efficacy relative to in vitro activity” value ([18]; i.m.) was “lower than that expected from its in vitro activity”, the protective effect ([18]; i.m.) was “protective effect in mice against both infections” and the MIC [19] was 3.1 µg/mL (≈ 9.8 µM). For the same molecule, the MIC [20] was 0.8 µg/mL (≈ 2.53 µM), the MIC [21] was 3.1 µg/mL (≈ 9.8 µM) and the “solubility in alkaline water and dimethylformamide” value [22] was “readily soluble”. The “solubility in ethyl acetate, chloroform, benzene and n-hexane” value [22] was “practically insoluble”, the “solubility in water, methanol, ethanol and acetone” value [22] was “slightly soluble” and the MIC [23] was > 100 µg/mL. For the same molecule, the MIC ([24]; A9635, pH 6) was 0.2 µg/mL (≈ 0.632 µM), the MIC ([24]; A9635, pH 7) was 3.1 µg/mL (≈ 9.8 µM) and the MIC [25] was 3.1 µg/mL (≈ 9.8 µM). The MIC [26] was 3.1 µg/mL (≈ 9.8 µM), the MIC [27] was 1.6 µg/mL (≈ 5.06 µM) and the MIC [28] was > 100 µg/mL. The MIC ([29]; A21933, pH 6) was 0.4 µg/mL (≈ 1.26 µM), the MIC ([29]; A21933, pH 7) was 6.3 µg/mL (≈ 19.9 µM) and the MIC ([30]; A20926, pH 6) was 0.05 µg/mL (≈ 0.158 µM). The MIC ([30]; A20926, pH 7) was 3.1 µg/mL (≈ 9.8 µM) and the MIC [31] was 3.1 µg/mL (≈ 9.8 µM).

With `Cc1cc(O)c(C(N)=O)c2nc(-c3nc(CO)ncc3O)oc12` [Boxazomycin A di-sodium salt] the solubility in water [22] was “soluble in water”.

In the case of `Cc1ncc(O)c(-c2nc3c(C(N)=O)c(O)cc(C)c3o2)n1` [Boxazomycin B], the MIC [1] is reported as 12.5 µg/mL (≈ 41.6 µM), the MIC [2] is reported as > 100 µg/mL and the MIC [3] is reported as 12.5 µg/mL (≈ 41.6 µM). The MIC ([4]; PCI219, pH 6) was 0.2 µg/mL (≈ 0.666 µM), the MIC ([4]; PCI219, pH 7) was 1.6 µg/mL (≈ 5.33 µM) and the MIC [5] was 25 µg/mL (≈ 83.3 µM). For the same molecule, the MIC ([6]; pH 6) was > 100 µg/mL, the MIC ([6]; pH 7) was > 100 µg/mL and the MIC ([7]; D11, pH 6) was > 100 µg/mL. The MIC ([7]; D11, pH 7) was > 100 µg/mL, the MIC [8] was 0.8 µg/mL (≈ 2.66 µM) and the MIC [9] was > 100 µg/mL. The MIC [10] was 6.3 µg/mL (≈ 21 µM), the MIC [11] was 3.1 µg/mL (≈ 10.3 µM) and the acidity [12] was “weakly acidic”. For the same molecule, the MIC [15] was 0.8 µg/mL (≈ 2.66 µM), the MIC [16] was 0.8 µg/mL (≈ 2.66 µM) and the MIC ([17]; A15202, pH 6) was 0.4 µg/mL (≈ 1.33 µM). For the same molecule, the MIC ([17]; A15202, pH 7) was 6.3 µg/mL (≈ 21 µM), the MIC [19] was 6.3 µg/mL (≈ 21 µM) and the MIC [20] was 1.6 µg/mL (≈ 5.33 µM). The MIC [21] was 12.5 µg/mL (≈ 41.6 µM), the “solubility in alkaline water and dimethylformamide” value [22] was “readily soluble” and the “solubility in ethyl acetate, chloroform, benzene and n-hexane” value [22] was “practically insoluble”. The “solubility in water, methanol, ethanol and acetone” value [22] was “slightly soluble”, the MIC [23] was > 100 µg/mL and the MIC ([24]; A9635, pH 6) was 0.4 µg/mL (≈ 1.33 µM). For the same molecule, the MIC ([24]; A9635, pH 7) was 6.3 µg/mL (≈ 21 µM), the MIC [25] was 6.3 µg/mL (≈ 21 µM) and the MIC [26] was 12.5 µg/mL (≈ 41.6 µM). For the same molecule, the MIC [27] was 3.1 µg/mL (≈ 10.3 µM), the MIC [28] was > 100 µg/mL and the MIC ([29]; A21933, pH 6) was 0.2 µg/mL (≈ 0.666 µM). It also gave an MIC ([29]; A21933, pH 7) of 6.3 µg/mL (≈ 21 µM), an MIC ([30]; A20926, pH 6) of 0.1 µg/mL (≈ 0.333 µM) and an MIC ([30]; A20926, pH 7) of 3.1 µg/mL (≈ 10.3 µM). The MIC [31] was 1.6 µg/mL (≈ 5.33 µM).

`NC[C@H]1O[C@H](O[C@H]2[C@H](O)[C@@H](O[C@H]3O[C@H](CO)[C@@H](O)[C@H](N)[C@H]3O)[C@H](N)C[C@@H]2N)[C@H](O)[C@@H](O)[C@@H]1O` [Kanamycin, kanamycin, reference compound] showed an MIC [1] of 50 µg/mL (≈ 103 µM), an MIC [2] of 0.4 µg/mL (≈ 0.826 µM) and an MIC [3] of 50 µg/mL (≈ 103 µM). For the same molecule, the MIC [5] was 25 µg/mL (≈ 51.6 µM), the MIC [8] was > 100 µg/mL and the MIC [9] was 0.4 µg/mL (≈ 0.826 µM). For the same molecule, the MIC [10] was > 50 µg/mL, the MIC [11] was > 100 µg/mL and the MIC [15] was 0.8 µg/mL (≈ 1.65 µM). For the same molecule, the MIC [16] was 0.8 µg/mL (≈ 1.65 µM), the ED50 [18] was 1.4 mg/kg and the MIC [19] was > 50 µg/mL. It also gave an MIC [20] of 1.6 µg/mL (≈ 3.3 µM), an MIC [21] of 25 µg/mL (≈ 51.6 µM) and an MIC [23] of 0.4 µg/mL (≈ 0.826 µM). The MIC [25] was > 50 µg/mL, the MIC [26] was > 50 µg/mL and the MIC [27] was 0.8 µg/mL (≈ 1.65 µM). The MIC [28] was 25 µg/mL (≈ 51.6 µM) and the MIC [31] was 0.2 µg/mL (≈ 0.413 µM).
